According to patent US5534554A, “Sucrose ester-C20 to C28 alcohol formulations” (priority 1994, dated 1996):
Like-named read-outs stand apart in the source and are kept apart here.

Columns and labels:
[1] = tested on: viruses; details: cited from earlier work
[2] = literature; cited from earlier work
[3] = tested on: wild-type HSV-2; experiment: Plaque inhibition, wild-type HSV-2 in Vero cells; type: cell-based; details: FIG. 7, Panel A
[4] = tested on: acyclovir-resistant HSV-2; experiment: Plaque inhibition, acyclovir-resistant HSV-2 in Vero cells; type: cell-based; details: FIG. 7, Panel B
[5] = tested on: HIV-1; experiment: HIV-1 replication in PHA/IL-2-stimulated human peripheral blood mononuclear cells (p24 ELISA); type: cell-based; details: n-docosanol/Pluronic, FIG. 13
Procedure: Human peripheral blood mononuclear cells were cultured in medium containing 1 μg/ml PHA plus 5 units/ml IL-2 alone or also containing 100 μg/ml PFA, […] F-68 control vehicle contained in the high dose of n-docosanol/Pluronic. After overnight incubation, the cultures were inoculated with HIV-1 at a multiplicity of infection of 1 virion/cell. After 24 hours incubation at 37° C., the cultures were washed and inoculated with fresh medium containing PHA and IL-2, but lacking inhibitor. Replication of HIV-1 was determined 4 days later by quantitation of viral antigens by a p24-specific ELISA for HIV-1.
Our initial studies on HIV were conducted in collaboration with a U.S. National Institutes of Health laboratory and one of several experiments of this type is summarized in FIG. 13. Normal human peripheral blood mononuclear cells were activated with […] PHA plus 5 units/ml of IL-2 in medium alone or in the presence of the n-docosanol, Pluronic F-68 control vehicle, or phosphonoformic acid (PFA). The next day, the cultures were inoculated with HIV-1 and examined 4 days later for evidence of viral replication by detection of the p24 viral antigen. […] The dose response of HIV-1 to n-docosanol indicates an ED 50 of about 6-9 mM.

[6] = tested on: herpes; details: literature, animal studies; cited from earlier work
[7] = tested on: herpes; details: literature, tissue culture; cited from earlier work

CCCCCCCCCCO [Formulation C-10]
antiviral activity ([1]; literature): significant antiviral activity | cytotoxic and hemolytic effects [2]: exhibited cytotoxic and hemolytic effects

CCCCCCCCCCCCO [Formulation C-12]
antiviral activity ([1]; literature): significant antiviral activity | cytotoxic and hemolytic effects [2]: exhibited cytotoxic and hemolytic effects

Nc1nc2c(ncn2COCCO)c(=O)[nH]1 [acyclovir, reference compound]
inhibition of plaque formation [3]: inhibit plaque formation by wild type HSV-2 equally | inhibition of acyclovir-resistant HSV-2 mutant [4]: fails to respond

OCc1ccccc1 [benzyl alcohol]
antiviral activity ([1]; under certain circumstances, U.S. Pat. No. 4,200,655): some antiviral activity

O=C(O)P(=O)(O)O [phosphonoformic acid, reference compound]
inhibition of HIV-1 replication [5]: very potent antiviral compound

CCCCCCCCCCCCCCCCCCCCCCCCCCCCCCO [triacontanol]
anti-herpes activity [6]: active as an anti-herpes agent | direct antiviral activity [7]: lacked direct antiviral activity
